Test results taken from ChEMBL document CHEMBL1201862, “PubChem BioAssay data set” (2004).
Calls of active or inactive are those of the source. Cut-off read from the data, not from the text of the source, for most assays here: actives have a measured EC50 and inactives only a lower limit.

Tests used:
[1] = target: T1, Zinc finger protein mex-5 (Caenorhabditis elegans, UniProt Q9XUB2); assay: potency of MEX-5 RNA-binding blockers – biochemical, C. elegans, fluorescence polarization, dose response (AID 1960)
T1 sequence (Q9XUB2 whole entry): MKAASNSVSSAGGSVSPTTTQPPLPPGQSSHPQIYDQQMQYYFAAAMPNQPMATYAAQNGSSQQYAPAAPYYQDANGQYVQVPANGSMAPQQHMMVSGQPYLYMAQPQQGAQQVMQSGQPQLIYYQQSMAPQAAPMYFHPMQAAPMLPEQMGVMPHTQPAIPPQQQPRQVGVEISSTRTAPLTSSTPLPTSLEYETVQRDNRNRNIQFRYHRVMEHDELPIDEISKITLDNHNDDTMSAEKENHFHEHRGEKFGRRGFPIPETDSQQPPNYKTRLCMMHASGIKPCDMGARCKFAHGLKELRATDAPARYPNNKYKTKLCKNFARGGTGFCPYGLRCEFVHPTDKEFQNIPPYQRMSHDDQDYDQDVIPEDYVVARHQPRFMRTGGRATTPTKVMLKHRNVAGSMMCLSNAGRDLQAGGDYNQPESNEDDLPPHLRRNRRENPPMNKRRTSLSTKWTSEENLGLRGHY

[2] = target: T2, RNA-binding protein pos-1 (Caenorhabditis elegans, UniProt G5EF15); assay: disruptors of C. elegans POS-1 RNA interaction – biochemical, fluorescence polarization, dose response (AID 1964);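 note: purified POS-1 fused to maltose binding protein made in E. coli; potency of compounds blocking POS-1 binding to fluorescent RNA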
T2 sequence (G5EF15 whole entry): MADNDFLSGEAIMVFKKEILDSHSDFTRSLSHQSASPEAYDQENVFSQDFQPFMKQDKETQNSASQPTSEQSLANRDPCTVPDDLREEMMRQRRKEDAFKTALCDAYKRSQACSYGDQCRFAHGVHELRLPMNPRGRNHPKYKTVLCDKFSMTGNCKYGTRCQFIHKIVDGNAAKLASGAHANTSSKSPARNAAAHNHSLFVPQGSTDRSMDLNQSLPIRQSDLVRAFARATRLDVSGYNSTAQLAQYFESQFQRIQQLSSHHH

Aminopeptidase N = target: T3, Aminopeptidase N (Plasmodium falciparum FcB1/Columbia, UniProt O96935); assay: malaria alanyl aminopeptidase activity blockers – biochemical, fluorogenic H-Leu-NHMec substrate, 1536-well (AID 1445); design: species or system Plasmodium falciparum 3D7, 3D7
T3 sequence (O96935 whole entry): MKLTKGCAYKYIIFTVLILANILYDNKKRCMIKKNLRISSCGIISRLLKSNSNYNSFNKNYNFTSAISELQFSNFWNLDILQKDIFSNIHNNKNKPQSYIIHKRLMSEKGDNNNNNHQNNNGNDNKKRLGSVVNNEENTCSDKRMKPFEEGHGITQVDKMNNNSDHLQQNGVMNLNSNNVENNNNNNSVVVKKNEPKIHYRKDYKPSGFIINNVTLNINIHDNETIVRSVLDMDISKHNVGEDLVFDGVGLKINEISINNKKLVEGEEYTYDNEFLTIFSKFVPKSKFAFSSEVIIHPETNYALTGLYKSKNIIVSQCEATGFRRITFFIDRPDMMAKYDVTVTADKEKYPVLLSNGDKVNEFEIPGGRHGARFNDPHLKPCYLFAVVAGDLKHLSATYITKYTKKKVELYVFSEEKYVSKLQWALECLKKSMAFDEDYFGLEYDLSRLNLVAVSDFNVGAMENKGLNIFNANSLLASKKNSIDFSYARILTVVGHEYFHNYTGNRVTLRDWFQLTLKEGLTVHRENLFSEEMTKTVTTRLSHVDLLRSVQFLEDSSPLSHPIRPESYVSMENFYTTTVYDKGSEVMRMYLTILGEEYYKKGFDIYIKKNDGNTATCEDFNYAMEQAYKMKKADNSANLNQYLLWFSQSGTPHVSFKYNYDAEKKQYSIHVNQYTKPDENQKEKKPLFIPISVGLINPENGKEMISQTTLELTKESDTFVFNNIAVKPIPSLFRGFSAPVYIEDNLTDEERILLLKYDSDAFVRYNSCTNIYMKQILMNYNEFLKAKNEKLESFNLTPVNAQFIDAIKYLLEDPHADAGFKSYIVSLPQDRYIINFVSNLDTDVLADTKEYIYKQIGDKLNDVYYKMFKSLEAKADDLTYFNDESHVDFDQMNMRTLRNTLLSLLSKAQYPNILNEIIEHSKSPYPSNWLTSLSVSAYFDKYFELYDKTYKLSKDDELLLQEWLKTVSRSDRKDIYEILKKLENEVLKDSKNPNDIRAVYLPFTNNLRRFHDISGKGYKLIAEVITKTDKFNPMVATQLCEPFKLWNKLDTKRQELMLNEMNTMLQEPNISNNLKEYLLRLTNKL

[3] = Luminescence Cell-Based Dose Confirmation HTS to Identify Activators of 5'UTR Stem-Loop Driven Alpha-Synuclein mRNA Translation in H4 Neuroglioblastoma Cells. [Related pubchem assays: 1829 (Project Summary), 1814 (Primary HTS)]; format: functional
[4] = Luminescence Cell-Based Dose Response HTS to Identify Activators of Luciferase Translation or Activity in H4 […] Cells. [Related pubchem assays: 1829 (Project Summary), 1814 (Primary HTS)]; format: functional
Protein skinhead-1 = target: T4, Protein skinhead-1 (Caenorhabditis elegans, UniProt P34707); format: functional
T4 sequence (P34707 whole entry): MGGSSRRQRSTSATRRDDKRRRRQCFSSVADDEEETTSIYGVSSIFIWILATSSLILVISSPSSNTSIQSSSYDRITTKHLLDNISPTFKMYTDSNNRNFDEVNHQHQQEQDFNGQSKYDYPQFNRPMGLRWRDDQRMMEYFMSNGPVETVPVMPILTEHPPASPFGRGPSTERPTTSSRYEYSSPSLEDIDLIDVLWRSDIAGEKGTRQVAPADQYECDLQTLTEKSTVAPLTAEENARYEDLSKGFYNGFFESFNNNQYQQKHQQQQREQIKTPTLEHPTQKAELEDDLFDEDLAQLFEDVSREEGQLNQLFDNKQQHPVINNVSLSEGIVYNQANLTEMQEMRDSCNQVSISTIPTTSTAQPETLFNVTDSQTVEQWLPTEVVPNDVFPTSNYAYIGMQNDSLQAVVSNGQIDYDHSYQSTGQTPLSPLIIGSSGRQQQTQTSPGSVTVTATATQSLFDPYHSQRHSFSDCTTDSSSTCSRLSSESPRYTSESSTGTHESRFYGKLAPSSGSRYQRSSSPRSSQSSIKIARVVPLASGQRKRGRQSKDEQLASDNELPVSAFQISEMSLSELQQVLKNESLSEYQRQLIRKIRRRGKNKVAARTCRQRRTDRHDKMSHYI

H4 = assay: Luminescence Cell-Based Dose Response HTS to Identify Activators of 5'UTR Stem-Loop Driven Prion Protein mRNA Translation in H4 Neuroglioblastoma Cells. [Related pubchem assays: 1829 (Project Summary), 1814 (Primary HTS)]; format: functional; settings: Homo sapiens
[5] = Trypanosoma cruzi growth suppression in host cells – NIH3T3 host cells, beta-gal luminescence, confirmation (AID 2044); format: functional, cell-based;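 note: intracellular parasites grown in NIH/3T3 mouse fibroblasts as host cells; luminescent beta-galactosidase reporter signal from transgenic T. cruzi replicating inside host cells; inhibitors lower the luminescence signal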
[6] = NIH3T3 cell viability loss – ATP luminescence, mouse fibroblasts, counter-screen, dose response (AID 2010); format: functional, cell-based;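 note: cells exposed to compound for about 90 hours before reading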
Paired box protein Pax-8 = Paired box protein Pax-8 (Homo sapiens, UniProt Q06710); assay: PAX8 transcriptional activity inhibition in RMG-I – RMG-I cells, luciferase, cherry-pick, dose response (AID 687027); format: functional, cell-based;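 note: luciferase reporter driven by Pax8 target thyroperoxidase promoter measured by SteadyGlo luminescence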
BJ [7] = assay: cells; format: functional, cell-based; settings: Homo sapiens
[8] = DRD fibroblast viability loss – cell-based, non-viral oncogenic, luminescence, dose response (AID 1934); format: functional; settings: Homo sapiens
BJ [9] = assay: BJ-TERT fibroblast viability loss – cell-based, RAS-independent, luminescence, dose response (AID 1933); format: functional; settings: Homo sapiens
BJ [10] = assay: BJ-TERT-LT-ST fibroblast viability loss – cell-based, RAS-independent, luminescence, dose response (AID 1935); format: functional; settings: Homo sapiens;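 note: BJ fibroblasts immortalized with TERT plus LT and ST oncogenes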

Paired box protein Pax-8, sequence (Q06710 whole entry): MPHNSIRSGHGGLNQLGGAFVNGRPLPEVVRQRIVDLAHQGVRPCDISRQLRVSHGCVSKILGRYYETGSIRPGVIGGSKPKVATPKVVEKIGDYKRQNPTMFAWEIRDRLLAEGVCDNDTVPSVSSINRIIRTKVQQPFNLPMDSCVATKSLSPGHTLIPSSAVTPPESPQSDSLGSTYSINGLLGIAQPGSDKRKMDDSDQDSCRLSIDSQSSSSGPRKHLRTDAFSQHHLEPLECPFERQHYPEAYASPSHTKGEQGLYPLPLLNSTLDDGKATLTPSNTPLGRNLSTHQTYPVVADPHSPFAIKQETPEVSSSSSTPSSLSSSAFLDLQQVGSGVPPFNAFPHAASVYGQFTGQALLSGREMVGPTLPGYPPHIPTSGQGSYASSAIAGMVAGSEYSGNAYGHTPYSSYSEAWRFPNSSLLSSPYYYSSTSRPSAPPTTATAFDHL

With O=C(O)CCc1ccc(-c2cccs2)n1-c1ccc(C(=O)O)cc1 as the compound, how does the EC50 [1] read?
The EC50 was > 300 µM (not active).

And the EC50 [2]?
Its EC50 is > 300 µM (not active).

With O=C1N=C(NS(=O)(=O)c2ccccc2)S/C1=C1\C(=O)Nc2ccccc21 as the compound, how does the IC50 (Aminopeptidase N) read?
The IC50 was 25.1 µM (active).

For CCn1c(CNC(=O)c2cccs2)nnc1SCC(=O)Nc1cc(Cl)ccc1C, which IC50 (Aminopeptidase N) is on record?
The IC50 was 6.86 µM (active).

With CCC1(C)Cc2ccccc2-c2nc(NCCO)n(-c3ccc(C)cc3)c(=O)c21 (stereo not drawn) as the compound, how does the EC50 [3] read?
The EC50 was > 120 µM (not active).

And the EC50 [4]?
The EC50 was > 120 µM (not active).

What about the IC50 (Protein skinhead-1) of the same compound?
Its IC50 is > 100 µM (inactive).

And the EC50 (H4)?
The EC50 was > 120 µM (not active).

What does the source list for O=C(NCCF)C1Nc2ccc(OC(F)(F)F)cc2C2C=CCC12 (stereo not drawn)?
EC50 [1]: > 300 µM (not active); EC50 [2]: > 300 µM (not active)

With O=C(O)c1cccc(N2C(=O)c3cccc4c(Cl)ccc(c34)C2=O)c1 as the compound, how does the IC50 (Aminopeptidase N) read?
Its IC50 is 83.3 µM (active).

For CC(C)(C)OC(=O)NCCCCC1=CC2=CC(=O)C(C)(OC(=O)c3cnc4ccccc4n3)C(=O)C2=CO1 (stereo not drawn), which EC50 [1] is on record?
Its EC50 is 15 µM (active).

What about the EC50 [2] of the same compound?
Its EC50 is 17.2 µM (active).

Which results are given for N=c1c(S(=O)(=O)c2ccc(Cl)cc2)cc2c(=O)n3ccccc3nc2n1CCc1ccccc1?
EC50 [1]: 1.39 µM (active); EC50 [5]: 0.377 µM (active); EC50 [2]: > 300 µM (inconclusive); EC50 [6]: > 60 µM (not active)

For C[C@H]1CCCCO[C@@H](CN(C)C(=O)NC2CCCCC2)[C@@H](C)CN([C@@H](C)CO)C(=O)c2cc(NC(=O)Nc3ccc(C(F)(F)F)cc3)ccc2O1, which AC50 (Paired box protein Pax-8) is on record?
Its AC50 is 2.54 µM (active).

With N#Cc1cc2c(nc1SCc1ccccc1)CCCC2=O as the compound, how does the IC50 (Aminopeptidase N) read?
Its IC50 is 86.4 µM (active).

With C=C1[C@@H](C)C2[C@H](Cc3ccccc3)NC(=O)[C@]23OC(=O)CC[C@H](O)CCC[C@H](C)C/C=C/[C@H]3[C@@H]1O (stereo partly drawn) as the compound, how does the EC50 (BJ [7]) read?
Its EC50 is > 150 µM (not active).

What about the EC50 [8] of the same compound?
Its EC50 is 12.2 µM (inconclusive).

And the EC50 (BJ [9])?
Its EC50 is 8.36 µM (inconclusive).

What about the EC50 (BJ [10]) of the same compound?
Its EC50 is 17.2 µM (active).
